From patent US6313090A, “Methods for treating parasitic infection using thiopeptides” (The United States of America as represented by the …, priority 2000, dated 2001)

Experiments:
[1] = test system: rpoB/C mRNA encoded by the 35-kb plastid-like organelle genome; type: cell-based, P. falciparum; details: thiostrepton at 8 μM, rifampin at 80 μM
Method: As of organelle and cyloplasmic transcript levels. RNA polymerase transcript levels were assessed by comparing the amounts of RNA synthesized at timepoints following drug treatment. Cultures of P. falciparum (3.2% parasitemia, 5% hematocrit) were treated with thiostrepton at 8 μM and rifampin (Sigma) at 80 μM; near the IC99 values (this study and ref. 22). Aliquots (5 ml) of treated and control cultures were removed and immediately processed for RNA with a guanidinium thiocyanate solution, according to the manufacturer's directions (RNAgents, Promega). All RNA samples were dissolved in 50 μl DEPC-treated water, DNase I treated as previously described (23) and an aliquot (1 μl) was removed for RT-PCR First strand synthesis of cDNA was completed with a random hexamer (Superscript Preamplification System, Life Technologies). One-tenth of the CDNA product was utilized for PCR of rpoB/C, MSA1, and rRNA. Primers corresponding to the 3' region of rpoB, 5'-GGGCTTTAGAAGCTTTTGG-3' (SEQ ID NO:1), and the 5' region of rpoC, 5'-[…]-3' (SEQ ID NO:2) were applied as described (2,3) for PCR of nascent rpoB/C transcripts. Reactions were cycled with the following parameters: 94° C./30 seconds, 42° C./30 seconds, 72° C./60 seconds, 35 cycles. Primers for amplification of nucleotide 64 to 614 of MSA1 with 5'-GTGTGATAATATTCATGG-3' (SEQ ID NO:3) and 5'-GGAGAGCATTTGGTG-3' (SEQ ID NO:4)(24) and the small subunit rRNA with oligonucleotides 841 and 844 (23) were used for amplification reactions following the parameters in the respective references except with 35 cycles. Samples were also analyzed after 25 cycles of amplification to ensure detection in the linear range of the amplification reaction, with similar results. Following electrophoresis of aliquots from the amplification reactions on 1% agarose:TBE gels, samples were transferred to nylon membranes (GeneScreen Plus, DuPont) and hybridized as described (25). The amplification products were probed with 5'-^32 P-labeled oligonucleotides. The rpoB/C products were probed with 5'-[…]-3' (SEQ ID NO:5) (nucleotide 2009-2030 of rpoB) and 5'-CGGAGAGGTATTAATACC-3' (SEQ ED NO:6) (nucleotide 108-125 of rpoC), in 5×SSC, 10 mM sodium phosphate, 0.05% sodium pyrophosphate, 1% sodium dodecyl sulfate, 5×Denhardt's solution, 100 μg/ml yeast tRNA, 42° C. and washed in the hybridization solution lacking Denhardt's and tRNA at 37° C., three times. The final wash was 1×SSC, 0.5% sodium dodecyl sulfate, 42° C. followed by autoradiography. The same results were obtained with either probe. The MSA1 amplification products were similarly probed with 5'-[…]-3' (SEQ ID NO:7) and the rRNA products with oligonucleotide 842 (23).
The target of inhibition by thiostrepton. […]

[2] = test system: P. falciparum (strain 3D7); details: concentration used, near the IC99 value; cited from earlier work
[3] = test system: P. falciparum (strain 3D7); assay: Assay of growth inhibition, [3H]hypoxanthine incorporation; type: cell-based; details: in vitro culture; [3H]hypoxanthine uptake and incorporation
Method: Assay of Growth inhibition. Thiostrepton (1525 u/mg; Calbiochem) and anisomycin (Sigma) were dissolved at 100 mM in DMSO (Pierce). P. falciparum (strain 3D7) (44) was maintained in culture with human erythrocytes (5% hematocrit) in RPMI-1640 (Life Technologies) supplemented with HEPES and sodium bicarbonate and human sera (10%) under standard conditions (18,19). The growth inhibition assay was conducted as described (20). Briefly, the parasitemia was adjusted to 0.1% parasitemia, 2.5% hematocrit and 200 μl aliquots placed in wells of a microtitre dish. Serial dilutions of drugs were made in RPMI. Thiostrepton was diluted to 10 mM in DMSO before the serial dilutions in RPMI. Aliquots (20 μl) were added in triplicate to the cultures in the microtitre plate, mixing well. At the highest concentrations (final 0.2mM), thiostrepton precipitates. After incubation for 48 hours under standard conditions, [2,8-^3 H]-hypoxanthine Moravek Biochemicals, 12.5 Ci/mmol) in RPMI (20 μl, 0.05 mCi/ml) was added to each well. After incubation for a further 24 hours, the cultures were lysed and incorporated radioactivity was measured with an automated counter.
Assay of inhibition. The effect of thiostrepton on growth and protein synthesis of P. falciparum was compared to anisomycin, since the effect of both of these drugs is on protein synthesis. To assay the effect of thiostrepton and anisomycin on the growth of P. faciparum, inhibition of the uptake and incorporation of [^3 H]hypoxanthine was quantitated at serial dilutions of the drugs on an in vitro culture of P. falciparum. […] Inhibition of the incorporation of [^3 H]leucine was also tested at the same dilutions of the drugs. For anisomycin, total protein synthesis was inhibited 50% at the IC50 (0.511 μM) for inhibition of growth, with the concentration-response almost superimposable on that of protein synthesis. […] This would occur if organelle protein synthesis was the target of inhibition (29,30).

C. parvum GCH1 oocysts = assay: Intact C. parvum oocyst assay on MDBKF5D2 cell monolayers, immunofluorescence; type: cell-based
Method: In vitro doses of drugs. Thiostrepton (Calbiochem) was dissolved in sterile complete Dulbecco's Modified Eagle Medium (DMEM) supplemented with dimethyl sulfoxide (DMSO) at 0.2% and tested at concentrations of 800, 400, 200, and 100, 10, 1 and 0.1 μg/ml.
(§1) Intact C. parvum oocyst asset 3.0×10^4 C. parvum GCH1 oocysts per well were incubated in the above-mentioned concentrations of drug at 37° C. (8% CO2) on confluent MDBKF5D2 cell monolayers in 96 well microtiter plates. The level of infection in each well was determined and analyzed by immunofluorescence assay at 48 hours, using C. parvum sporozoite rabbit anti-serum (0.1%) and fluorescein-conjugated goat anti-rabbit antibody (1.0%). Percent inhibition was calculated by subtracting the mean parasite/drug from the mean parasitelmedium, divided by the mean parasite/medium, all of which was multiplied by 100. The analysis was performed using MCID and an inverted microscope.
In vitro doses of drugs. Thiostrepton (Calbiochem) and Phavic (NTZ) were dissolved in sterile complete Dulbecco's Modified Eagle Medium (DMEM) supplemented with dimethyl sulfoxide (DMSO) at 0.2% and tested at concentrations of 800, 400, 200, and 100 μg/ml. NTZ was tested at concentrations of 100, 10, 1 and 0.1 μg/ml. Paromomycin (Sigma) was dissolved in DMEM and tested at concentrations of 2000, 1000, 500 and 250 μg/ml.
as §1, with “assay .” for “asset”, “plates. For some monolayers, the oocysts were incubated in DMEM on the cell monolayers for four hours, at which time the monolayers were washed and then drug was added to the wells.” for “plates.”, “parasite/medium,” for “parasitelmedium,”
In vitro doses of drugs. Thiostrepton (Calbiochem), Phavic (NTZ) were dissolved in sterile complete Dulbecco's Modified Eagle Medium (DMEM) supplemented with dimethyl sulfoxide (DMSO) at 0.2%. Thiostrepton was tested at a concentration of 800 μg/ml. NTZ was tested at a concentration of 10 μg/ml. Paromomycin was dissolved in DMEM and tested at 2000 μg/ml. Cell monolayers were infected and washed, followed by the addition of drug at time intervals of 0, 2, 4, 8 and 24 hours.
as §1, with “assay.” for “asset”, “analyze” for “analyzed”, “parasite/medium,” for “parasitelmedium,”

[4] = Table 4 Washed at 4 hours, 1 μg/ml
[5] = Table 4 Washed at 4 hours, 10 μg/ml
[6] = Table 4 Washed at 4 hours, .1 μg/ml
[7] = Table 5, 10 μg/ml, drug added at 0 hrs
[8] = Table 5, 10 μg/ml, drug added at 2 hrs
[9] = Table 5, 10 μg/ml, drug added at 4 hrs
[10] = Table 5, 10 μg/ml, drug added at 8 hrs
[11] = Table 5, 10 μg/ml, drug added at 24 hrs

CO[C@H]1/C=C/O[C@@]2(C)Oc3c(C)c(O)c4c(O)c(c(/C=N/N5CCN(C)CC5)c(O)c4c3C2=O)NC(=O)/C(C)=C\C=C\[C@H](C)[C@H](O)[C@@H](C)[C@@H](O)[C@@H](C)[C@H](OC(C)=O)[C@@H]1C [rifampin]
decay of mRNA corresponding to rpoB/C, time of drug treatment [1]: ≤ 6 h
IC99 (near) [2]: ~80 µM

COc1ccc(C[C@H]2NC[C@H](O)[C@H]2OC(C)=O)cc1 [anisomycin]
IC50 [3]: 500 nM

CC(=O)Oc1ccccc1C(=O)Nc1ncc([N+](=O)[O-])s1 [NTZ]
Inhibition Percent (C. parvum GCH1 oocysts; Table 3 Unwashed, 1 μg/ml): 43.60%
Inhibition Score (C. parvum GCH1 oocysts; Table 3 Unwashed, 1 μg/ml): 1 (1: 31-55%)
Parasite Count (C. parvum GCH1 oocysts; Table 3 Unwashed, 1 μg/ml): 694.75
Inhibition Percent (C. parvum GCH1 oocysts; Table 3 Unwashed, 10 μg/ml): 92.91%
Inhibition Score (C. parvum GCH1 oocysts; Table 3 Unwashed, 10 μg/ml): 4 (4: 91-100%)
Parasite Count (C. parvum GCH1 oocysts; Table 3 Unwashed, 10 μg/ml): 87.31
Inhibition Percent (C. parvum GCH1 oocysts; Table 3 Unwashed, .1 μg/ml): 10.31%
Inhibition Score (C. parvum GCH1 oocysts; Table 3 Unwashed, .1 μg/ml): 0 (0: 0-30%)
Parasite Count (C. parvum GCH1 oocysts; Table 3 Unwashed, .1 μg/ml): 1104.81
Inhibition Percent (C. parvum GCH1 oocysts; [4]): 83.27%
Inhibition Score (C. parvum GCH1 oocysts; [4]): 3 (3: 71-90%)
Parasite Count (C. parvum GCH1 oocysts; [4]): 233.44
Inhibition Percent (C. parvum GCH1 oocysts; [5]): 93.12%
Inhibition Score (C. parvum GCH1 oocysts; [5]): 4 (4: 91-100%)
Parasite Count (C. parvum GCH1 oocysts; [5]): 96.06
Inhibition Percent (C. parvum GCH1 oocysts; [6]): 4.42%
Inhibition Score (C. parvum GCH1 oocysts; [6]): 0 (0: 0-30%)
Parasite Count (C. parvum GCH1 oocysts; [6]): 1334.06
Inhibition Percent (C. parvum GCH1 oocysts; [7]): 91.12%
Inhibition Score (C. parvum GCH1 oocysts; [7]): 4 (4: 91-100%)
Parasite Count (C. parvum GCH1 oocysts; [7]): 113.06
Inhibition Percent (C. parvum GCH1 oocysts; [8]): 95.76%
Inhibition Score (C. parvum GCH1 oocysts; [8]): 4 (4: 91-100%)
Parasite Count (C. parvum GCH1 oocysts; [8]): 53.94
Inhibition Percent (C. parvum GCH1 oocysts; [9]): 91.18%
Inhibition Score (C. parvum GCH1 oocysts; [9]): 4 (4: 91-100%)
Parasite Count (C. parvum GCH1 oocysts; [9]): 112.31
Inhibition Percent (C. parvum GCH1 oocysts; [10]): 86.01%
Inhibition Score (C. parvum GCH1 oocysts; [10]): 3 (3: 71-90%)
Parasite Count (C. parvum GCH1 oocysts; [10]): 178.13
Inhibition Percent (C. parvum GCH1 oocysts; [11]): 60.60%
Inhibition Score (C. parvum GCH1 oocysts; [11]): 2 (2: 56-70%)
Parasite Count (C. parvum GCH1 oocysts; [11]): 501.63
activity when drug is added 24 hours after infection (C. parvum GCH1 oocysts; intracellular stages only): still highly inhibitory
